{"source": "paper PMC3914206", "assay_type_in_all_cases": "binding", "details_in_all_cases": "Compound Concentration 10 µM", "key": {"panel of 442 kinases [1]": {"biological_target": "T1, panel of 442 kinases (Homo sapiens, UniProt P00519, Q252H)", "T1 construct": "purchased KINOMEscan", "source_text": "(§1) We assessed the selectivity of members of this scaffold using the KINOMEscan methodology across a near comprehensive panel of 442 kinases [[18,27]]."}, "panel of 442 kinases [2]": {"biological_target": "T2, panel of 442 kinases (Homo sapiens, UniProt P07948)", "T2 construct": "purchased KINOMEscan", "source_text": "as §1"}, "panel of 442 kinases [3]": {"biological_target": "T3, panel of 442 kinases (Homo sapiens, UniProt P29376)", "T3 construct": "purchased KINOMEscan", "T3 sequence (P29376 17-864)": "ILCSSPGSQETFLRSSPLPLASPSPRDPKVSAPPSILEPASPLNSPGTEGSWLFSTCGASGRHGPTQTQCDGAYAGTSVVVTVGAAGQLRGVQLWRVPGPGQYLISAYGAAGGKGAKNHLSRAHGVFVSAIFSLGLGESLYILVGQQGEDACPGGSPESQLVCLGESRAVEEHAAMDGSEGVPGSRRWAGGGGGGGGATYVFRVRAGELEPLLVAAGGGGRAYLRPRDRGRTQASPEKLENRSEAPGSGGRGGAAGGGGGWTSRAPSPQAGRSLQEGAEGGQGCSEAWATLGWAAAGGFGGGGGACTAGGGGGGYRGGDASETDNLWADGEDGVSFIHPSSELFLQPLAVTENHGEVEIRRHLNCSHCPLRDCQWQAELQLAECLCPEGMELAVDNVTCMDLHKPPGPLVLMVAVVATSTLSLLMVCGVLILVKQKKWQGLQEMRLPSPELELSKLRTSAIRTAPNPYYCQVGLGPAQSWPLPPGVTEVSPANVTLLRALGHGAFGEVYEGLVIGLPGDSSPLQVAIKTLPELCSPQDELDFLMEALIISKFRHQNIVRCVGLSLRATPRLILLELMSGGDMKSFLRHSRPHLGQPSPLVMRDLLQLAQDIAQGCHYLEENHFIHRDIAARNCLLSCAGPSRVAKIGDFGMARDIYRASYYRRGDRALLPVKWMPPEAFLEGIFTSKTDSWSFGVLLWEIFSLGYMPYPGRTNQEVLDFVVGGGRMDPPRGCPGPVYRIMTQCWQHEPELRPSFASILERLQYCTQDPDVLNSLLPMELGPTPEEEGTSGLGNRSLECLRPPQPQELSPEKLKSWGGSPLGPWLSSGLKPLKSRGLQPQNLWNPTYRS", "source_text": "as §1"}, "panel of 442 kinases [4]": {"biological_target": "T4, panel of 442 kinases (Homo sapiens, UniProt Q02750)", "T4 construct": "purchased KINOMEscan", "source_text": "as §1"}}, "data": [{"compound": "COc1cc(C(=O)N2CCC(N3CCN(C)CC3)CC2)ccc1Nc1ncc2c(n1)N(C1CCCC1)c1ccccc1C(=O)N2C", "note": "[Compound 25, 11-cyclopentyl-2-((2-methoxy-4-(4-(4-methylpiperazin-1-yl)piperidine-1-carbonyl)phenyl)amino)-5-methyl-5H-benzo[e]pyrimido[5,4-b][1,4]diazepin-6(11H)-one]", "values": [{"measurement": "KINOMEscan: ABL1(Q252H)-nonphosphorylated", "setting": "panel of 442 kinases [1]", "result": 89}, {"measurement": "KINOMEscan: ABL1(Q252H)-phosphorylated", "setting": "panel of 442 kinases [1]", "result": 83}, {"measurement": "KINOMEscan: LYN", "setting": "panel of 442 kinases [2]", "result": 85}, {"measurement": "KINOMEscan: LTK", "setting": "panel of 442 kinases [3]", "result": 11}, {"measurement": "KINOMEscan: MEK1", "setting": "panel of 442 kinases [4]", "result": 68}]}, {"compound": "CCOc1cc(C(=O)N2CCC(N3CCN(C)CC3)CC2)ccc1Nc1ncc2c(n1)N(C1CCCC1)c1ccccc1C(=O)N2C", "note": "[Compound 26]", "values": [{"measurement": "KINOMEscan: ABL1(Q252H)-nonphosphorylated", "setting": "panel of 442 kinases [1]", "result": 100}, {"measurement": "KINOMEscan: ABL1(Q252H)-phosphorylated", "setting": "panel of 442 kinases [1]", "result": 100}, {"measurement": "KINOMEscan: LYN", "setting": "panel of 442 kinases [2]", "result": 100}, {"measurement": "KINOMEscan: LTK", "setting": "panel of 442 kinases [3]", "result": 48}, {"measurement": "KINOMEscan: MEK1", "setting": "panel of 442 kinases [4]", "result": 100}]}, {"compound": "COc1cc(C(=O)N2CCC(N3CCN(C)CC3)CC2)ccc1Nc1ncc2c(n1)N1CCc3cccc(c31)C(=O)N2C", "note": "[Compound 24]", "values": [{"measurement": "KINOMEscan: LYN", "setting": "panel of 442 kinases [2]", "result": 83}, {"measurement": "KINOMEscan: MEK1", "setting": "panel of 442 kinases [4]", "result": 75}]}, {"compound": "COc1cc(C(=O)N2CCC(N3CCN(C)CC3)CC2)ccc1Nc1ncc2c(n1)N(C)c1ccccc1C(=O)N2C", "note": "[15 (LRRK2-IN-1)]", "values": [{"measurement": "KINOMEscan: ABL1(Q252H)-nonphosphorylated", "setting": "panel of 442 kinases [1]", "result": 100}, {"measurement": "KINOMEscan: ABL1(Q252H)-phosphorylated", "setting": "panel of 442 kinases [1]", "result": 100}, {"measurement": "KINOMEscan: LYN", "setting": "panel of 442 kinases [2]", "result": 100}, {"measurement": "KINOMEscan: LTK", "setting": "panel of 442 kinases [3]", "result": 32}, {"measurement": "KINOMEscan: MEK1", "setting": "panel of 442 kinases [4]", "result": 100}]}]}
